pIC50: −log10 of the molar value.

The target in this assay is T1, Mitogen-activated protein kinase kinase kinase 12 (Homo sapiens, UniProt Q12852).
T1 sequence (Q12852 whole entry): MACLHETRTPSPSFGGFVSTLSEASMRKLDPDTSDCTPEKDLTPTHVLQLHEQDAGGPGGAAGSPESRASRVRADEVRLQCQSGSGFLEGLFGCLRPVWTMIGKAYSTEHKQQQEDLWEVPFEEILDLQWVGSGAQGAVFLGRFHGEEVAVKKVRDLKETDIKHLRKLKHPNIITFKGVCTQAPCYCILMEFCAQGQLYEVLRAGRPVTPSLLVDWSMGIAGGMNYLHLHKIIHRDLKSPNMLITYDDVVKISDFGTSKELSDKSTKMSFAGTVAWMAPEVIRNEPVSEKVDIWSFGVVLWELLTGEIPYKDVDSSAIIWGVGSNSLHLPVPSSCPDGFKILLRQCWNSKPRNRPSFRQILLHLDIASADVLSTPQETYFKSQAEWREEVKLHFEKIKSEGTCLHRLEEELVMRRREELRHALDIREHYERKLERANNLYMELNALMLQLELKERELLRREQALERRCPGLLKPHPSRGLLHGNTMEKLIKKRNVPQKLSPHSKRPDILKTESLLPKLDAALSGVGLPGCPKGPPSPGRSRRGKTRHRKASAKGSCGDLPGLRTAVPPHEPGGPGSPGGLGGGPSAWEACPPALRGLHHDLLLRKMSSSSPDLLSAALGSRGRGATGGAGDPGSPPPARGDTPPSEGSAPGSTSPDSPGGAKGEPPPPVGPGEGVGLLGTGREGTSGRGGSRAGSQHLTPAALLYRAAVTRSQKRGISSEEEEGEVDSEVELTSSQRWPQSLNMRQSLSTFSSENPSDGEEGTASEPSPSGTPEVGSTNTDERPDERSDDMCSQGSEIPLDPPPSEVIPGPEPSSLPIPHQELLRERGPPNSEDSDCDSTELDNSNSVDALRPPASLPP
Briefly: Inhibition of doxycycline inducible human DLK transfected in HEK293 cells assessed as JNK phosphorylation after […] in presence of 10% bovine serum by Hoechst-33342 staining-based assay. In kind it is cell-based.

Broadly, the pIC50 is the IC50 on a negative log10 scale, so that one unit is a factor of ten. As for `CC(C)n1nc(-c2cnc(N)c(OC(F)(F)F)c2)cc1[C@H]1[C@@H]2CN(C3COC3)C[C@@H]21`, the negative logarithm of the IC50 (pIC50) was 6.89.

Source of the values: ChEMBL document CHEMBL4118097, “Selective Inhibitors of Dual Leucine Zipper Kinase (DLK, MAP3K12) with Activity in a Model of Alzheimer's Disease” (J Med Chem, 2017).
